Assay [1] concerns soybean rust fungus (Phakopsora pachyrhizi) having an amino acid substitution of F129L on mitochondrial cytochrome b protein. Briefly: Comparative Test Example 1: soybean leaf disk test versus commercial QoI fungicides. It is filed as in vivo. As to conditions: method of Test Example 1. The protocol: A soybean leaf (cv; Kurosengoku) was punched out to 1 cm diameter to prepare a leaf disk. Each 1 mL of 1.2% agar medium was dispensed in 24 well microplate. A piece of the leaf disk was placed on each well. To a mixture of 0.5 μL of Sorpol (registered trademark) 1200KX, 4.5 μL of DMSO, and 5 μL of xylene was added 20 μL of a solution containing 10,000 ppm of the test compound in DMSO. The resulting mixture was diluted with ion exchange water to prepare a spray solution containing a predetermined concentration of the test compound. The spray solution was sprayed in 10 μL per one leaf disk. After 1 day, an aqueous suspension of spores of soybean rust fungus (Phakopsora pachyrhizi) having an amino acid substitution of F129L on mitochondrial cytochrome b protein (1.0×10^5/mL) was inoculated onto the leaf disks. After the inoculation, the microplate was placed in a growth chamber (light on for 6 hours, light off for 18 hours, 23° C. temperature, 60% humidity). After 1 day, the leaf disks were air-dried to disappear water droplets on the surface of the leaf disk, and the microplate was placed again in the growth chamber for 10 to 14 days. Thereafter, a lesion area of soybean rust disease was assessed. […] Here the untreated means that the spray solution containing the test compound was not sprayed onto the leaf disk.
The test was conducted by using as a test compound the compound 1, 4 or 9 of the present invention, the present compound 7, 8, 15, 18, 23, 31 or 37, pyribencarb, azoxystrobin, dimoxystrobin, metominostrobin, Fluoxastrobin, or Kresoxim-methyl at 50 ppm according to a method described in the Test Example 1. The results are indicated in [Table A] and [Table B].

Assay [2] has as its system soybean rust fungus strain with single amino acid substitution of F129L in the cytochrome b gene. The settings on record: F129L QoI-resistant soybean rust fungi; background art; cited from earlier work.

With `CO/C=C(\Oc1cc(C2CC2)ccc1C)C(=O)OC` [Compound 1 of the present invention], the “Lesion area (%) at 50 ppm” value in assay [1] turned out to be 0%.
The same measure, in the same setting: the value for `CO/C=C(\Oc1cc(C2OCCCO2)ccc1C)C(=O)OC` [Compound 4 of the present invention] was 10%.
For the compound `CO/C=C(\Oc1cc(Cc2ccccc2)ccc1C)C(=O)OC` [Present compound 18], in assay [1], the “Lesion area (%) at 50 ppm” value stood at 0%.
With `CO/N=C(/C1=NOCCO1)c1ccccc1Oc1ncnc(Oc2ccccc2Cl)c1F` [Fluoxastrobin], in assay [1], the “Lesion area (%) at 50 ppm” value stood at 100%. Further, the “efficacy against the resistant fungi” value in assay [2] is listed as “reduced to the level of practical problems”.
For Metominostrobin, the “Lesion area (%) at 50 ppm” value in assay [1] is recorded as 100%. In assay [2], the “efficacy against the resistant fungi” value is recorded as “reduced to the level of practical problems”.
As for `CO/C=C(/C(=O)OC)N(C)c1cccc(Oc2ccccc2C)c1` [Present compound 7], the “Lesion area (%) at 50 ppm” value in assay [1] turned out to be 10%.
For `CNC(=O)/C(=N/OC)c1ccccc1COc1cc(C)ccc1C` [Dimoxystrobin], the “Lesion area (%) at 50 ppm” value in assay [1] is 100%. Besides, in assay [2], the “efficacy against the resistant fungi” value is “reduced to the level of practical problems”.
`CO/C=C(\Oc1cccc(C(=O)c2ccccc2)c1)C(=O)OC` [Present compound 8]: in assay [1], the “Lesion area (%) at 50 ppm” value is reported as 10%.
For `CO/C=C(/C(=O)OC)c1ccccc1Oc1cc(Oc2ccccc2C#N)ncn1` [Azoxystrobin], the “Lesion area (%) at 50 ppm” value in assay [1] was 100%. For the same compound, the “efficacy against the resistant fungi” value in assay [2] is “reduced to the level of practical problems”.
As for `CO/C=C(\Oc1cc(Oc2ccccc2)ccc1C)C(=O)OC` [Present compound 15], the “Lesion area (%) at 50 ppm” value in assay [1] was found to be 0%.
Take `CO/C=C(\Oc1cc(/N=C/N(C)c2ccccc2)ccc1C)C(=O)OC` [Compound 9 of the present invention]: in assay [1], the “Lesion area (%) at 50 ppm” value was 10%.
Turning to `COC(=O)NCc1cc(/C(C)=N/OCc2cccc(C)n2)ccc1Cl` [Pyribencarb], in assay [1], the “Lesion area (%) at 50 ppm” value is recorded as 100%. For the same compound, the “efficacy against the resistant fungi” value in assay [2] is “reduced to the level of practical problems”.
On to `CO/N=C(/C(=O)OC)c1ccccc1COc1ccccc1C` [Kresoxim-methyl], for which the “Lesion area (%) at 50 ppm” value in assay [1] is recorded as 100%. For the same compound, the “efficacy against the resistant fungi” value in assay [2] is recorded as “reduced to the level of practical problems”.

The values are drawn from patent US12439917B2, “Method for controlling phakopsora pachyrhizi having resistance against QoI fungicide” (SUMITOMO CHEMICAL COMPANY, LIMITED, priority 2020, dated 2025).
